From US10940173B2, “Cannabis oil extracts and compositions” (priority 2015, dated 2021)
Read-outs that look alike come from different tables or passages of the source.

Assays:
Type in all cases: cell-based
[1] = molecular target: T1, CNR1 (also known as CB1) (Homo sapiens, UniProt P21554); settings: read-out: CNR1 cAMP EC50
[2] = molecular target: T2, CNR2 (also known as CB2) (Homo sapiens, UniProt P34972); assay: β-arrestin GPCR assay (PathHunter), CNR2; parameters: β-galactosidase enzyme fragment (complementation partner); settings: β-arrestin recruitment
[3] = molecular target: T1, CNR1 (also known as CB1); parameters: β-galactosidase enzyme fragment (complementation partner); settings: read-out: CNR1 β-Arrestin EC50
[4] = molecular target: T2, CNR2 (also known as CB2); assay: cAMP competitive inhibition immunoassay (HitHunter), CNR2; settings: cAMP assay

T2 sequence (P34972 whole entry, the tested form may be a part): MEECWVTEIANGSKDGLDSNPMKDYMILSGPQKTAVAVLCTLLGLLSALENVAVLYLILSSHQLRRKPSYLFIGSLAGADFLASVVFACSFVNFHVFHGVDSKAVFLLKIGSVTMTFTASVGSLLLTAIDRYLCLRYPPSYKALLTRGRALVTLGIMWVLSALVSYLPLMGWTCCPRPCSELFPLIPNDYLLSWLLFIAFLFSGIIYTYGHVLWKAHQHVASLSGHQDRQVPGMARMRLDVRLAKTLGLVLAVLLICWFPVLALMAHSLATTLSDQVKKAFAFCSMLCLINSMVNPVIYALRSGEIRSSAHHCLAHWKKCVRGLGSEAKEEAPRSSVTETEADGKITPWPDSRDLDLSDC
T1 sequence (P21554 whole entry, the tested form may be a part): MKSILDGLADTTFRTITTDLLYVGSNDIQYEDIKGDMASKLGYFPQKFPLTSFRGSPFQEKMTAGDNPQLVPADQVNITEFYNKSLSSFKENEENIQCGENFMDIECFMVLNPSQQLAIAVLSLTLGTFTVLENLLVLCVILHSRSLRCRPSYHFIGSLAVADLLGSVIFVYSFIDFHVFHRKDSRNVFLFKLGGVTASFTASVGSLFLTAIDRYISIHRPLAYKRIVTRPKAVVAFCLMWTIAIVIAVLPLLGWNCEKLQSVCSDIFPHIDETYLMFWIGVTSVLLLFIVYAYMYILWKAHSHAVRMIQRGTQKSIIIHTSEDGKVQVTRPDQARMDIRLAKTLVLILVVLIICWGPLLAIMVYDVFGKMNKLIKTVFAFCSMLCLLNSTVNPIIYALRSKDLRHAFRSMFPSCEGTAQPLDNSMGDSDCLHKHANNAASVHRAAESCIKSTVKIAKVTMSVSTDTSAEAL

SMILES: CCCCCc1cc(O)c2c(c1)OC(C)(C)[C@@H]1CCC(CO)=C[C@@H]21 [Example 11-OH-THC]
- EC50 [1]: 10.8 nM
- EC50 [2]: > 16.7 µM
- EC50 [3]: > 16.7 µM
- EC50 [4]: 571 nM
